Patent US8618100B2, “Compounds with antibacterial activity against Clostridium” (Elanco Animal Health Ireland Limited, priority 2010, dated 2013)
In brackets after ≈: the same amount, converted by molar mass.

Key:
[1] = tested on: Clostridium perfringens (strain 56); test: microbe, parasite or virus in culture; type: cell-based; conditions: 24 h, read-out: IC90 against C. perfringens
[2] = tested on: Staphylococcus epidermidis; test: In-vitro test against several bacteria (D.1.3): S. epidermidis; conditions: for IC90: Staphylococcus epidermidis, read-out: IC90 against S. epidermidis
[3] = tested on: Methicillin-Resistant Staphylococcus aureus; test: In-vitro test against several bacteria (D.1.3): Methicillin-Resistant S. aureus; conditions: for IC90: Staphylococcus aureus, read-out: IC90 against Methicillin-Resistant S. aureus
Pseudomonas aeruginosa = test: In-vitro test against several bacteria (D.1.3): P. aeruginosa; conditions: read-out: IC90 against P. aeruginosa
[4] = tested on: Clostridium difficile (ATCC9689); test: In-vitro anti-bacterial activity against C. difficile (D.1.2); type: cell-based; conditions: Clostridioides difficile, Reinforced Clostridial broth, 37° C., 48 hours, anaerobic, OD 570 nm
Escherichia coli = test: In-vitro test against several bacteria (D.1.3): E. coli; conditions: read-out: IC90 against E. coli
Staphylococcus aureus = test: In-vitro test against several bacteria (D.1.3): S. aureus; conditions: for IC90: Staphylococcus aureus, read-out: IC90 against S. aureus
Streptococcus pneumonia = test: In-vitro test against several bacteria (D.1.3): S. pneumonia; type: cell-based; conditions: Gram positive, Todd Hewitt medium, 20-24 hours in 5% CO2; for IC90: Streptococcus pneumoniae
Protocol: (§1) The plates were incubated at 37° C. […] Enterococcus faecalis, Streptococcus pneumonia: Todd Hewitt medium; incubation for 20-24 hours in 5% CO2.

Bacillus subtilis = test: In-vitro test against several bacteria (D.1.3): B. subtilis; conditions: read-out: IC90 against B. subtilis
Mycobacterium smegmatis = test: In-vitro test against several bacteria (D.1.3): M. smegmatis; type: cell-based; conditions: Mycolicibacterium smegmatis; Mueller Hinton medium; 48 hours aerobic
Protocol: The plates were incubated at 37° C. […] Mycobacterium smegmatis: Mueller Hinton medium; incubation for 48 hours in aerobic conditions.

Listeria monocytogenes = test: In-vitro test against several bacteria (D.1.3): L. monocytogenes; conditions: read-out: IC90 against L. monocytogenes
Moraxella catarrhalis = test: In-vitro test against several bacteria (D.1.3): M. catarrhalis; type: cell-based; conditions: Gram negative, Brain heart Infusion medium, 20-24 hours aerobic, read-out: IC90 against M. cattarhalis
Protocol: (§2) The plates were incubated at 37° C.

Enterococcus faecalis = test: In-vitro test against several bacteria (D.1.3): E. faecalis; type: cell-based; conditions: Gram positive, Todd Hewitt medium, 20-24 hours in 5% CO2; for IC90: Enterococcus faecalis
Protocol: as §1

Acinetobacter baumanii = test: In-vitro test against several bacteria (D.1.3): A. baumanii; type: cell-based; conditions: Acinetobacter baumannii; Gram negative; Nutrient broth; 20-24 hours aerobic
Protocol: as §2

Klebsiella pneumoniae = test: In-vitro test against several bacteria (D.1.3): K. pneumoniae; conditions: read-out: IC90 against K. pneumoniae
[5] = Gram positive, Mueller Hinton medium, 20-24 hours aerobic

SMILES | melting point [°C] | IC90 [1] [µg/mL] | IC90 [2] [µg/mL] | IC90 [3] [µg/mL] | IC90 (Pseudomonas aeruginosa) [µg/mL] | IC90 [4] [µg/mL] | IC90 (Escherichia coli) [µg/mL] | IC90 (Staphylococcus aureus) [µg/mL] | IC90 (Streptococcus pneumonia) [µg/mL] | IC90 (Bacillus subtilis) [µg/mL] | IC90 (Mycobacterium smegmatis) [µg/mL] | IC90 (Listeria monocytogenes) [µg/mL] | IC90 (Moraxella catarrhalis) [µg/mL] | IC90 (Enterococcus faecalis) [µg/mL] | IC90 (Acinetobacter baumanii) [µg/mL] | IC90 (Klebsiella pneumoniae) [µg/mL] | further results
CNc1nc(NCCCN[C@@H]2CCOc3c(Br)cc(Br)cc32)nc2c(Cl)cnn12 [(3)] | 108.8 to 118.6 |  |  |  |  |  |  |  |  |  |  |  |  |  |  |  | 
Nc1nc(NCCCN[C@@H]2CCOc3c(Br)cc(Br)cc32)nc2c(Cl)cnn12 [(4)] | 78.7 to 94.1 |  |  |  |  |  |  |  |  |  |  |  |  |  |  |  | 
Cl.Oc1nc(NCCCN[C@@H]2CCOc3c(Br)cc(Br)cc32)nc2ccnn12 [Compound (2)] | 234.6 to 235.6 | 0.5 | 15 | 7 to 13 | > 75 | 2 | > 31 | 8 to 15 | > 31 | 4 | > 31 | 2 | 16 | 1.5 | > 64 | > 64 | IC90 against S. pneumonia (Streptococcus pneumonia): >31 µg/mL
O=c1cc(NCCCN[C@@H]2CCOc3c(Br)cc(Br)cc32)[nH]c2ccsc12 [REP3123, 5-[3-((R)(+)-6,8-dibromo-chroman-4-ylamino)-propylamino]-4H-thieno[3,2-b]pyridine-7-one] |  | 0.25 (≈ 0.487 µM) | < 0.25 | < 0.25 | > 78 | 0.5 to 1 (≈ 0.974 to 1.95 µM) | > 32 | < 0.25 | 1 (≈ 1.95 µM) | 0.12 (≈ 0.234 µM) | 6 to 8 (≈ 11.7 to 15.6 µM) | 0.12 (≈ 0.234 µM) | 16 (≈ 31.2 µM) | < 0.25 | > 64 | > 64 | IC90 against S. epidermidis [2, 5]: <0.25 µg/mL; IC90 against Methicillin-Resistant S. aureus [3, 5]: <0.25 µg/mL; IC90 against S. aureus (Staphylococcus aureus; [5]): <0.25 µg/mL; IC90 against E. faecalis (Enterococcus faecalis): <0.25 µg/mL
